Columns and labels:
[1] = system: dry eye syndrome mouse models undergoing desiccating stress (BALB/c mice); assay: Desiccating stress dry eye syndrome mouse model: corneal epithelial defects (Lissamine green) and tear secretion (phenol red thread); format: in vivo; conditions: 8-week-old BALB/c mice, vs PBS
Protocol: Two types of dry eye syndrome mouse models were used to examine whether 1,5DQ instillation is effective for dry eye syndrome. The first mouse model is a desiccating stress model, and BALB/c mice were reared in a dry environment (humidity: 20 to 30%) while administering a drug that suppresses tear secretion (scopolamine hydrobromide 0.5 mg/0.2 mL) intraperitoneally three times a day. The second mouse model is a Sjögren's syndrome-related inflammatory dry eye syndrome mouse model, and NOD.B10.H2^b mice were used. […]
(§1) In each of the two types of dry eye syndrome mouse models, the dry eye treatment effect of 1,5DQ instillation was investigated. The degree of corneal epithelial defects was measured by instilling a drop of the Lissamine green vital dye on the cornea and then observing the degree of stained corneal epithelial defects under a microscope and clinical scoring the same. The amount of tear secretion was evaluated by placing a thread soaked with a phenol red dye on the outer canthus of the mouse for 1 minute and measuring the length moistened by tears (length of the dyed area).
(§2) 8-week-old BALB/c mice undergoing desiccating stress were divided into two groups, and (i) 5 μL of 1,5DQ (50 μg/μL) or (ii) 5 μL of PBS was instilled into both eyes of each mouse twice a day for 5 days, and then the degree of corneal epithelial defects and the amount of tear secretion were evaluated.

[2] = system: Sjögren's syndrome-related inflammatory dry eye syndrome mouse models (NOD.B10.H2^b mice); assay: Sjögren's syndrome-related inflammatory dry eye syndrome mouse model: corneal epithelial defects and tear secretion; format: in vivo; conditions: for corneal epithelial defects: vs PBS or 5 μg/μL
Protocol: Two types of dry eye syndrome mouse models were used to examine whether 1,5DQ instillation is effective for dry eye syndrome. The first mouse model is a desiccating stress model, and BALB/c mice were reared in a dry environment (humidity: 20 to 30%) while administering a drug that suppresses tear secretion (scopolamine hydrobromide 0.5 mg/0.2 mL) intraperitoneally three times a day. The second mouse model is a Sjögren's syndrome-related inflammatory dry eye syndrome mouse model, and NOD.B10.H2^b mice were used. In the NOD.B10.H2^b mice, under normal environments, inflammation in the lacrimal glands and on the ocular surface spontaneously increases at about 11 weeks, leading to destruction of the lacrimal glands and ocular surface, decreased tear secretion, and severe dry eye syndrome accompanied by ocular surface epithelial defects progresses between 11 and 14 weeks.
as §1
as §2, with “As described above, as Sjögren's syndrome-related inflammatory dry eye syndrome mice, NOD.B10.H2^b” for “8-week-old BALB/c”, “were used. 12-week-old mice” for “undergoing desiccating stress”
Accordingly, the dry eye syndrome treatment effect according to the 1,5DQ treatment concentration was investigated. 12-week-old NOD.B10.H2^b mice (Sjögren's syndrome-related inflammatory dry eye syndrome mouse models) were divided into four groups, and (i) 5 μL of PBS, (ii) 5 μL of 1,5DQ (5 μg/μL), (iii) 5 μL of 1,5DQ (50 μg/μL), or (iv) 5 μL of 1,5DQ (500 μg/μL) was instilled into both eyes twice a day for 5 days, and then the degree of corneal epithelial defects and the amount of tear secretion were evaluated.

interleukin 1β (IL-1β) = assay: IL-1β transcripts in lacrimal glands by real-time RT PCR, desiccating stress model; format: in vivo, mouse; conditions: BALB/c mice, 5 μL of 1,5DQ (50 μg/μL) twice a day for 5 days, vs PBS
Protocol: Desiccating stress-induced 8-week-old BALB/c mice were divided into two groups, and (i) 5 μL of 1,5DQ (50 μg/μL) or (ii) 5 μL of PBS was instilled into both eyes of each mouse twice a day for 5 days. The lacrimal glands of a mouse were classified into an extraorbital lacrimal gland and an intraorbital lacrimal gland, and the degree of inflammatory activation in each lacrimal gland was evaluated by measuring the levels of transcripts of inflammatory cytokine interleukin 1β (IL-1β) using real-time RT PCR.

[3] = system: CD3-positive immune cells; assay: CD3 immunostaining of lacrimal glands, Sjögren's syndrome-related model; format: in vivo, mouse; conditions: 12-week-old NOD.B10.H2^b mice; 5 μL of 1,5DQ (50 μg/μL) twice a day for 5 days; vs PBS
Protocol: Sjögren's syndrome-related inflammatory dry eye syndrome mice, i.e., NOD.B10.H2^b mice, typically show increased infiltration of inflammatory cells into the lacrimal glands between 11 to 14 weeks old. 12-week-old NOD.B10.H2^b mice were divided into two groups, and (i) 5 μL of 1,5DQ (50 μg/μL) or (ii) 5 μL of PBS was instilled into both eyes of each mouse twice a day for 5 days, and then the level of inflammatory cell infiltration in the lacrimal glands was evaluated. In addition, the extraorbital and intraorbital lacrimal glands, which had been removed from each mouse and sectioned, were immunostained with CD3, T cells were observed using the stained CD3 under a microscope (FIGS. 4A and 4B) and counted, and then the level of immune cell infiltration in the lacrimal glands was quantified (FIG. 4C).

IL-6 = IL-6 transcripts in eyelids (meibomian glands) by real-time RT PCR, Sjögren's syndrome-related model; format: in vivo, mouse; conditions: 12-week-old NOD.B10.H2^b mice; 5 μL of 1,5DQ (50 μg/μL) twice a day for 5 days; vs PBS
Protocol: (§3) 12-week-old NOD.B10.H2^b mice were divided into two groups, and (i) 5 μL of 1,5DQ (50 μg/μL) or (ii) 5 μL of PBS was instilled into both eyes of each mouse twice a day for 5 days. The degree of inflammation activation in the eyelids was evaluated by measuring the levels of transcripts of the inflammatory cytokines IL-6 and tumor necrosis factor-α (TNF-α), and another inflammatory factor, matrix metallopeptidase 9 (MMP-9), using real-time RT PCR.

[4] = system: tumor necrosis factor-α (TNF-α); assay: TNF-α transcripts in eyelids (meibomian glands) by real-time RT PCR, Sjögren's syndrome-related model; format: in vivo, mouse; conditions: 12-week-old NOD.B10.H2^b mice; 5 μL of 1,5DQ (50 μg/μL) twice a day for 5 days; vs PBS
Protocol: as §3

[5] = system: matrix metallopeptidase 9 (MMP-9); assay: MMP-9 transcripts in eyelids (meibomian glands) by real-time RT PCR, Sjögren's syndrome-related model; format: in vivo, mouse; conditions: 12-week-old NOD.B10.H2^b mice; 5 μL of 1,5DQ (50 μg/μL) twice a day for 5 days; vs PBS
Protocol: as §3

meibomian glands = assay: Area of eyelid meibomian glands, Sjögren's syndrome-related model; format: in vivo, mouse; conditions: 12-week-old NOD.B10.H2^b mice; 5 μL of 1,5DQ (50 μg/μL) twice a day for 5 days; vs PBS
Protocol: 12-week-old NOD.B10.H2^b mice were divided into two groups, and (i) 5 μL of 1,5DQ (50 μg/μL) or (ii) 5 μL of PBS was instilled into both eyes of each mouse twice a day for 5 days. The area of the meibomian glands was confirmed by removing an eyelid from the mouse model and then measuring the area of 3 mm at the center.

[6] = system: stearoyl-CoA desaturase (SCD) 1; assay: SCD1 transcription in eyelids by real-time RT PCR; format: in vivo, mouse; conditions: 12-week-old NOD.B10.H2^b mice; 5 μL of 1,5DQ (50 μg/μL) twice a day for 5 days; vs PBS
Protocol: (§4) 12-week-old NOD.B10.H2^b mice were divided into two groups, and (i) 5 μL of 1,5DQ (50 μg/μL) or (ii) 5 μL of PBS was instilled into both eyes of each mouse twice a day for 5 days. After removing the lower and upper eyelids of each mouse model, the expression level of meibomian gland differentiation factors in the eyelids was determined using real-time RT PCR. The meibomian glands are composed of sebocytes, and the transcription levels of stearoyl-CoA desaturase (SCD) 1 and SCD3, which are sebocyte-specific genes, were measured.

SCD3 = SCD3 transcription in eyelids by real-time RT PCR; format: in vivo, mouse; conditions: 12-week-old NOD.B10.H2^b mice; 5 μL of 1,5DQ (50 μg/μL) twice a day for 5 days; vs PBS
Protocol: as §4

[7] = system: human corneal epithelial cells; assay: MTT cell viability of corneal epithelial cells, normal or hyperosmotic environment; format: cell-based; conditions: 24 hours
Protocol: (§5) Corneal epithelial cells primarily cultured from human corneal limbal cells were treated with 100 mM NaCl for exposure to a hyperosmotic environment, and treated with 0, 10, 25, 50, or 100 μg/mL of 1,5DQ for 24 hours, and then cell viability was evaluated through MTT assay.

[8] = system: human corneal epithelial cells; assay: Apoptosis of corneal epithelial cells by annexin V/PI flow cytometry, hyperosmotic environment; format: cell-based; conditions: hyperosmotic environment (100 mM NaCl), 24 hours
Protocol: as §5, with “the degree of apoptosis” for “then cell viability”, “measured by performing flow cytometry after annexin V (ANX) and propidium iodide (PI) staining.” for “evaluated through MTT assay.”

[9] = 12-week-old NOD.B10.H2^b mice, 5 μL of 1,5DQ (50 μg/μL) instilled twice a day for 5 days, vs PBS (Example 1-2)

Substance: 1,5-O-dicaffeoylquinic acid [1,5DQ]
- degree of corneal epithelial defects ([1]; 5 μL of 1,5DQ (50 μg/μL) instilled in both eyes twice a day for 5 days): significantly reduced
- amount of tear secretion ([1]; 5 μL of 1,5DQ (50 μg/μL) instilled twice a day for 5 days): significantly increased
- amount of tear secretion [2, 9]: significantly increased
- degree of corneal epithelial defects [2, 9]: significantly reduced
- amount of tear secretion, dependence on concentration ([2]; Example 4, NOD.B10.H2^b mice, 5, 50 or 500 μg/μL 1,5DQ, 5 μL twice a day for 5 days): increasing trend depending on concentration
- corneal epithelial defects ([2]; Example 4, NOD.B10.H2^b mice, 5 μL of 1,5DQ 50 μg/μL twice a day for 5 days): significantly reduced
- corneal epithelial defects ([2]; Example 4, NOD.B10.H2^b mice, 5 μL of 1,5DQ 500 μg/μL twice a day for 5 days): significantly reduced
- amount of tear secretion, difference between the groups ([2]; Example 4, NOD.B10.H2^b mice, PBS, 5, 50 or 500 μg/μL 1,5DQ, 5 μL twice a day for 5 days): no statistically significant difference
- interleukin 1β expression, extraorbital lacrimal gland (interleukin 1β (IL-1β)): significant reduced
- interleukin 1β expression, intraorbital lacrimal gland (interleukin 1β (IL-1β)): significant reduced
- number of CD3-positive immune cells deposited in the lacrimal glands [3]: significantly decreased
- IL-6 expression in the meibomian glands of the eyelids (IL-6): significantly reduced
- TNF-α expression in the meibomian glands of the eyelids [4]: significantly reduced
- MMP-9 expression in the meibomian glands of the eyelids [5]: significantly reduced
- area of the meibomian glands in the lower eyelid (meibomian glands): significantly increased
- expression of SCD1 in the eyelids [6]: significantly increased
- expression of SCD3 in the eyelids (SCD3): significantly increased
- cell viability (MTT) ([7]; hyperosmotic environment (100 mM NaCl), 10 μg/mL 1,5DQ): significantly increased
- cell viability (MTT) ([7]; hyperosmotic environment (100 mM NaCl), 25 μg/mL 1,5DQ): significantly increased
- cell viability (MTT) ([7]; hyperosmotic environment (100 mM NaCl), 50 μg/mL 1,5DQ): significantly increased
- cell viability (MTT) ([7]; hyperosmotic environment (100 mM NaCl), 100 μg/mL 1,5DQ): significantly increased
- cell viability (MTT) ([7]; normal corneal epithelial cells not treated with NaCl, 25 μg/mL 1,5DQ): significantly increased
- cell viability (MTT) ([7]; normal corneal epithelial cells not treated with NaCl, 50 μg/mL 1,5DQ): significantly increased
- apoptosis level of the corneal epithelial cells ([8]; 10 μg/mL 1,5DQ): significantly reduced
- apoptosis level of the corneal epithelial cells ([8]; 25 μg/mL 1,5DQ): significantly reduced
- apoptosis level of the corneal epithelial cells ([8]; 50 μg/mL 1,5DQ): significantly reduced
